# In paper PMC11672294, “The Antipsychotic Drug Aripiprazole Suppresses Colorectal Cancer by Targeting LAMP2a to Induce RNH1/miR‐99a/mTOR‐Mediated Autophagy and Apoptosis” (Advanced Science, 2024):
# Structures can show the parent of a compound that is named as a salt.
# Tested on: HT29
# Conditions: 72 h, relative to DMSO, 10 µM, Relative cell viability (%)
# Method in brief: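 HT29 viability used WST-1 reduction (2 h, 37 °C, A450) after 72 h of treatment; screening compounds were tested singly at 10 µM, with dimethyl sulfoxide as the comparison.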
row,SMILES,Relative cell viability (%)
1,COc1ccc(C[C@@H]2c3cc(OC)c(OC)cc3CC[N@+]2(C)CCC(=O)OCCCCCOC(=O)CC[N@@+]2(C)CCc3cc(OC)c(OC)cc3[C@H]2Cc2ccc(OC)c(OC)c2)cc1OC [Cisatracurium Besylate],127.3%
2,N#CC[C@H](C1CCCC1)n1cc(-c2ncnc3[nH]ccc23)cn1 [S-Ruxolitinib (INCB018424)],98.54%
3,Cc1c(-c2ccc(O)cc2)n(Cc2ccc(OCCN3CCCCCC3)cc2)c2ccc(O)cc12 [Bazedoxifene HCl],91.36%
4,COc1cc2nc(N3CCN(C(=O)C4CCCO4)CC3)nc(N)c2cc1OC (centres unmarked) [Terazosin],88.03%
5,CCN(C)C(=O)Oc1cccc([C@H](C)N(C)C)c1 [Rivastigmine],88.03%

# Same assay, conditions: 72 h, relative to DMSO; 10 µM
row,SMILES,Relative cell viability (%)
1,CC(C)n1c(/C=C/[C@@H](O)C[C@@H](O)CC(=O)O)c(-c2ccc(F)cc2)c2ccccc21 (racemic) [Fluvastatin Sodium],103.4%
2,COc1ccccc1OCC(O)CO (centres unmarked) [Guaifenesin],74.15%
3,CC1=NN(c2ccccc2)C(=O)C1 [Edaravone],97.66%
4,CC1=NN(c2ccc(C)c(C)c2)C(=O)/C1=N\Nc1cccc(-c2cccc(C(=O)O)c2)c1O [Eltrombopag Olamine],122%
5,Cc1ccc(Cl)c(Nc2ccccc2C(=O)O)c1Cl [Meclofenamate Sodium],83.03%
6,CC[C@H](C)C(=O)O[C@H]1C[C@H](O)C=C2C=C[C@H](C)[C@H](CC[C@@H](O)C[C@@H](O)CC(=O)O)[C@H]21 [Pravastatin sodium],89.81%
7,CC[C@]1(O)C[C@H]2CN(CCc3c([nH]c4ccccc34)[C@@](C(=O)OC)(c3cc4c(cc3OC)N(C=O)[C@H]3[C@@](O)(C(=O)OC)[C@H](OC(C)=O)[C@]5(CC)C=CCN6CC[C@]43[C@@H]65)C2)C1 [Vincristine],22.9%
8,C=C[C@]1(C)C[C@@H](OC(=O)CSC(C)(C)CNC(=O)[C@H](N)C(C)C)[C@]2(C)[C@H](C)CC[C@]3(CCC(=O)[C@H]32)[C@@H](C)[C@@H]1O [Valnemulin HCl],68.48%
9,Clc1ccc(C(Cn2ccnc2)OCc2ccc(Sc3ccccc3)cc2)c(Cl)c1 (centres unmarked) [Fenticonazole Nitrate],58.4%
10,CNC(=C[N+](=O)[O-])NCCSCc1ccc(CN(C)C)o1 [Ranitidine],97.03%
11,CC#C[C@]1(O)CC[C@H]2[C@@H]3CCC4=CC(=O)CCC4=C3[C@@H](c3ccc(N(C)C)cc3)C[C@@]21C [Mifepristone],46.12%
12,O=C(O)c1ccccc1Nc1cccc(C(F)(F)F)c1 [Flufenamic acid],80.303%
13,CN(C)[C@@H](CCOc1cccc2ccccc12)c1ccccc1 [Dapoxetine HCl],44.92%
14,CN(C)c1nc(N(C)C)nc(N(C)C)n1 [Altretamine],57.17%
15,Cc1ccc(-n2nccn2)c(C(=O)N2CCN(c3nc4cc(Cl)ccc4o3)CC[C@H]2C)c1 [Suvorexant (MK-4305)],90.6%
16,CN(C)C(=O)COC(=O)Cc1ccc(OC(=O)c2ccc(NC(=N)N)cc2)cc1 [Camostat Mesilate],140.8%
17,CC(C)(Oc1ccc(C2CC2(Cl)Cl)cc1)C(=O)O (centres unmarked) [Ciprofibrate],34.47%
18,C=C1[C@H](CO)[C@@H](O)C[C@@H]1n1cnc2c(=O)[nH]c(N)nc21 [Entecavir Hydrate],99.22%
19,Nc1nc2c(ncn2COCCO)c(=O)[nH]1 [Aciclovir],89.41%
20,Cc1cc(Nc2ncc(Cl)c(Nc3ccccc3S(=O)(=O)C(C)C)n2)c(OC(C)C)cc1C1CCNCC1 [LDK378],0%
21,CNC[C@H](O)[C@@H](O)[C@H](O)[C@H](O)CO [Meglumine],172.9%
22,CCOC(=O)c1ncn2c1CN(C)C(=O)c1cc(F)ccc1-2 [Flumazenil],80.53%
23,O=C(Nc1c(Cl)cncc1Cl)c1ccc(OC(F)F)c(OCC2CC2)c1 [Roflumilast],121.4%
24,CCN1CCCC1CNC(=O)c1cc(S(=O)(=O)CC)c(N)cc1OC (centres unmarked) [Amisulpride],77.41%

row,SMILES,Relative cell viability (%)
1,Oc1cc(O)c(Cl)cn1 [Gimeracil],117.6%
2,OC[C@@H](O)[C@@H](O)[C@H](O)[C@H](O)CO [D-Mannitol],114.9%
3,Cc1nnc(C(=O)NC(C)(C)c2nc(C(=O)NCc3ccc(F)cc3)c(O)c(=O)n2C)o1 [Raltegravir (MK-0518)],181.8%
4,CC(S)C(=O)NCC(=O)O (centres unmarked) [Tiopronin],149.2%
5,C[C@H]1COc2c(N3CCN(C)CC3)c(F)cc3c(=O)c(C(=O)O)cn1c23 [Levofloxacin],124%
6,C[C@H]1O[C@@H](n2cc(F)c(=O)[nH]c2=O)[C@H](O)[C@@H]1O [Doxifluridine],150.2%
7,N[C@@H](Cc1cc(I)c(Oc2cc(I)c(O)c(I)c2)c(I)c1)C(=O)O [L-Thyroxine],67.96%
8,COc1nc(C)nc(Cl)c1N=C1NCCN1 [Moxonidine],116.7%
9,C=CCN1CC[C@]23c4c5ccc(O)c4O[C@H]2C(=O)CC[C@@]3(O)[C@H]1C5 [Naloxone HCl],95.63%
10,O=c1ccc2ccccc2o1 [Coumarin],71.21%
11,"CCCS(=O)(=O)Nc1ccc(F)c(C(=O)c2c[nH]c3ncc(-c4ccc(Cl)cc4)cc23)c1F [Vemurafenib (PLX4032, RG7204)]",36.92%
12,CN(C)CCC(c1ccc(Cl)cc1)c1ccccn1 (centres unmarked) [Chlorpheniramine Maleate],102.1%
13,Nc1nc(Cl)nc2c1ncn2[C@@H]1O[C@H](CO)[C@@H](O)[C@@H]1F [Clofarabine],43.15%
14,C[C@@H]1C[C@H]2[C@@H]3CCC4=CC(=O)C=C[C@]4(C)[C@@]3(F)[C@@H](O)C[C@]2(C)[C@@]1(O)C(=O)CO [Dexamethasone (DHAP)],75.86%
15,CC(/C=C1\SC(=S)N(CC(=O)O)C1=O)=C\c1ccccc1 [Epalrestat],135.7%
16,CC(N)C12CC3CC(CC(C3)C1)C2 (centres unmarked) [Rimantadine],127.5%
17,CC1(C)S[C@@H]2[C@H](NC(=O)[C@H](N)c3ccc(O)cc3)C(=O)N2[C@H]1C(=O)O [Amoxicillin],67.96%
18,O=C(O)/C=C/c1ccc(Cn2ccnc2)cc1 [Ozagrel HCl],127.9%
19,O=c1[nH]c(=O)n(C2CCCO2)cc1F (centres unmarked) [FT-207 (NSC 148958)],74.3%
20,CN(C)CCOc1ccc(/C(=C(/CCCl)c2ccccc2)c2ccccc2)cc1 [Toremifene Citrate],34.75%
21,CCCCCCCCc1ccc(CCC(N)(CO)CO)cc1 [Fingolimod (FTY720) HCl],0%
22,CCCN(CCc1cccs1)[C@H]1CCc2c(O)cccc2C1 [Rotigotine],62.12%
23,O=c1ccn([C@@H]2O[C@H](CO)[C@@H](O)[C@H]2O)c(=O)[nH]1 [Uridine],222.2%
24,CN(C)C/C=C/C(=O)Nc1cc2c(Nc3ccc(F)c(Cl)c3)ncnc2cc1O[C@H]1CCOC1 [Afatinib (BIBW2992) Dimaleate],20.09%
